From article PMC8282797, “Strictly regulated agonist-dependent activation of AMPA-R is the key characteristic of TAK-653 for robust synaptic responses and cognitive improvement” (Scientific Reports, 2021) come the findings set out here.

The structures appear in SMILES notation.

In one assay the test system is rGluA1i. The experiment in a line: Ca2+ influx assay in rGluA1i CHO cells (species difference). It counts as cell-based, rat. The settings on record: 3 mM glutamate. As to the method:
Ca^2+ influx assays using human GluA1/flip and human stargazin co-expressing CHO cells plated at 3 × 10^4 cells/well in 96-well Black Clear plates (Corning Incorporated, Corning, NY) were performed as previously described, with some modifications. For evaluation of the species difference, rat GluA1/flip expressing CHO cells were plated. For mutant channels, the human GluA1i S743A mutant was generated using the In-Fusion HD Cloning Kit (Takara Bio Inc., Kusatsu, Japan) according to the manufacturer's protocol and transiently introduced to CHO cells by Gene Pulser II Electroporation System (Bio-Rad Laboratories, Inc., Hercules, CA). Relative increases of intracellular Ca^2+ levels were monitored for 3 min with a fluorometric imaging plate reader (CellLux, Perkin Elmer Life and Analytical Sciences, Inc., Shelton, CT). […]
Human GluA1/flip and human stargazin co-expressing CHO cells were plated at 3×10^4 cells/well in 96-well Black Clear plate (Corning Incorporated, Corning, NY). […] Relative increases of intracellular Ca^2+ levels by compounds in the presence and absence of 3 mM L-glutamate were monitored for 3 min by fluorometric imaging plate reader (CellLux, Perkin Elmer Life and Analytical Sciences, Inc., Shelton, CT). Activity of compound was defined as integration value of fluorescence value of each detection point. […] EC50 values were calculated by logistic regression analysis.

For the next assay, the system named is rats. Description: 5-choice serial reaction time task (5CSRTT). Type of assay: in vivo, rat. The settings on record: 0.3 mg/kg, p.o. How it is done:
The experiment consists of two sessions, training and testing session. The training session was initiated with 7-week-old of male Long-Evans rats, and the testing session was conducted at 12-13 months old. Throughout the experimental period, food was restricted to 80-85% of their free-feeding body weight. The training and testing were conducted using four operant chambers enclosed in sound-attenuating boxes (Med Associates Inc., St Albans, VT). Each chamber contained a curved wall with five contiguous apertures. Food pellets were supplied automatically into a magazine located in the opposite wall of the five contiguous apertures in the chamber, and a photocell beam was used to detect head entries into the magazine. In the training session, a pellet was delivered into the magazine at the start of each session to facilitate initiation of the first trial. After a 5 s-intertrial interval (ITI), a light stimulus was presented in one of the five apertures followed by the 5 s-limited hold without light stimulus. […] Rats were required to nose-poke in the illuminated aperture. […] Incorrect responses (responses in non-illuminated apertures), omissions (failure to respond during the limited hold) and premature responses (responses occurring prior to the presentation of the stimulus) were punished by a 5 s-timeout periods with extinction of the house light and no delivery of food. Accuracy was calculated as the number of correct responses / (number of correct responses + number of incorrect responses) × 100. Each session lasted for 35 min or until 100 trials were completed. Rats were trained until they achieved criterion performance (>75% accuracy and <20 omissions) over 3 consecutive days. In the testing session, the duration of light stimuli on an aperture was set to 0.5 s with a variable ITI schedule (4, 5, 7, or 10 s). Equal numbers of each ITI were randomly presented over 100 trials. TAK-653 at 0.3 mg/kg or vehicle was orally administered 2 h prior to testing in a cross-over design. Data were indicated as the mean ± SEM of number of correct responses, omissions, and premature responses. For sub-population analyses, a median split of the population was undertaken based on their correct response scores under vehicle treatment to ensure no interaction with performance changes across the study (Robinson, 2012).

Consider `CC1=CN2CCS(=O)(=O)N=C2C(c2ccc(OC3CCCCC3)cc2)=N1` [TAK-653, 9-[4-(Cyclohexyloxy)phenyl]-7-methyl-3,4-dihydropyrazino[2,1-c][1,2,4]thiadiazine 2,2-dioxide], for which the “Fold difference in the EC50 value between rat and human receptors” value in the assay on rGluA1i is recorded as 1.1 fold. In addition, the Premature responses entry in the assay with rats was “did not affect”. For the same compound, in the assay with rats (2 h prior to the trial), the “5CSRTT performance in the whole population” value was “no significant improvement”. Besides, in the assay on rats (median split), the “Correct responses in the poor performing rats” value is recorded as “significantly increased” and the “Omissions in the poor performing rats” value is “decreased”.
